One assay addresses T1, NEK11 (Homo sapiens, UniProt Q8NG66).
T1 sequence (Q8NG66 1-645): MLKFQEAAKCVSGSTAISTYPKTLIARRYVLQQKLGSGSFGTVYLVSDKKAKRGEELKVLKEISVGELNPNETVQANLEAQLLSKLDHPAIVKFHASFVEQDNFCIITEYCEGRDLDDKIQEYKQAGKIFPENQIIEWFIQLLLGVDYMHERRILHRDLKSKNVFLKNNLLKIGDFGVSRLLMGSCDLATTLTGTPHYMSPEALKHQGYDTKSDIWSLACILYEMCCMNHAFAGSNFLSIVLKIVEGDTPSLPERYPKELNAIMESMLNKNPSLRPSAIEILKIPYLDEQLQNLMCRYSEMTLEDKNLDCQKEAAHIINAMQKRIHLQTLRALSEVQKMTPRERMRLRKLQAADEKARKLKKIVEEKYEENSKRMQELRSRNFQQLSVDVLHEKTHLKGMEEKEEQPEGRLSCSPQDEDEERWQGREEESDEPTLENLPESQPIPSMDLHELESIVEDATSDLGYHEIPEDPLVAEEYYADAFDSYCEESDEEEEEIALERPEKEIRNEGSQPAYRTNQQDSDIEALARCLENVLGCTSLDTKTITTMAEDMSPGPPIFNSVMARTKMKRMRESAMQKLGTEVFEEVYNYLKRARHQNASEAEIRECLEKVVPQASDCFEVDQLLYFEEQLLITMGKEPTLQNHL
As to the kind of experiment: biochemical. To be noted: read-out: % enzyme activity, 1 μM; Run 1, Run 2.

Another assay addresses CDK19/cyclin C (Homo sapiens, UniProt Q9BWU1). The conditions noted are these: 1 μM; Run 1, Run 2.
Another assay addresses T2, NEK5 (Homo sapiens, UniProt Q6P3R8).
T2 sequence (Q6P3R8 1-708): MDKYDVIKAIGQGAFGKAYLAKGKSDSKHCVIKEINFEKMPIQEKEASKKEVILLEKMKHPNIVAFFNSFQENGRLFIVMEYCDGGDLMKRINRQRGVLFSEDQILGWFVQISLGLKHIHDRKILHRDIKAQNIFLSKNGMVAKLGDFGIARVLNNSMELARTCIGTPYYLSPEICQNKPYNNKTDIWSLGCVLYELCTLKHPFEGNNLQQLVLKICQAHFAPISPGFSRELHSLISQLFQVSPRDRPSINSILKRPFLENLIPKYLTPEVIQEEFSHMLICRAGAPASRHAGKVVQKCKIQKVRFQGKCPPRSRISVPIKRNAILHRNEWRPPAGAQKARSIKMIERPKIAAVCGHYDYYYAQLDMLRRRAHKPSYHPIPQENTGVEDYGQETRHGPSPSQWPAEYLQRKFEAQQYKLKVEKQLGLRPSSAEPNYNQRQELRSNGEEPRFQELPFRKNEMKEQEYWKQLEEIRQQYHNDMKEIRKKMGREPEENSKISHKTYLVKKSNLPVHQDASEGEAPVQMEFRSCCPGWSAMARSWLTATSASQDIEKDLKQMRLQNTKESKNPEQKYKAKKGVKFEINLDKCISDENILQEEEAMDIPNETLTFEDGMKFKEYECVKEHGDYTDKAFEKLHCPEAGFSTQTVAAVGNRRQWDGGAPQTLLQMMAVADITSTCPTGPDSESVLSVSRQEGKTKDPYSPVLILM
As to the kind of experiment: biochemical. To be noted: read-out: % enzyme activity, 1 μM; Run 1, Run 2.

The target of a further assay is WNK1 (Homo sapiens, UniProt Q9H4A3). The assay is described as follows: biochemical. To be noted: read-out: % enzyme activity, 1 μM; Run 1, Run 2.
Another assay has as its target MSK2/RPS6KA4 (Homo sapiens, UniProt O75676). To be noted: 1 μM; Run 1, Run 2.
Another assay addresses CK1epsilon (Homo sapiens, UniProt P49674). As to the kind of experiment: biochemical. The conditions noted are these: read-out: % enzyme activity, 1 μM; Run 1, Run 2.
A further assay concerns the target ROCK1 (Homo sapiens, UniProt Q13464). As to the kind of experiment: biochemical. The conditions noted are these: read-out: % enzyme activity, 1 μM; Run 1, Run 2.
Another assay deals with T3, MUSK (Homo sapiens, UniProt O15146).
T3 sequence (O15146 24-869): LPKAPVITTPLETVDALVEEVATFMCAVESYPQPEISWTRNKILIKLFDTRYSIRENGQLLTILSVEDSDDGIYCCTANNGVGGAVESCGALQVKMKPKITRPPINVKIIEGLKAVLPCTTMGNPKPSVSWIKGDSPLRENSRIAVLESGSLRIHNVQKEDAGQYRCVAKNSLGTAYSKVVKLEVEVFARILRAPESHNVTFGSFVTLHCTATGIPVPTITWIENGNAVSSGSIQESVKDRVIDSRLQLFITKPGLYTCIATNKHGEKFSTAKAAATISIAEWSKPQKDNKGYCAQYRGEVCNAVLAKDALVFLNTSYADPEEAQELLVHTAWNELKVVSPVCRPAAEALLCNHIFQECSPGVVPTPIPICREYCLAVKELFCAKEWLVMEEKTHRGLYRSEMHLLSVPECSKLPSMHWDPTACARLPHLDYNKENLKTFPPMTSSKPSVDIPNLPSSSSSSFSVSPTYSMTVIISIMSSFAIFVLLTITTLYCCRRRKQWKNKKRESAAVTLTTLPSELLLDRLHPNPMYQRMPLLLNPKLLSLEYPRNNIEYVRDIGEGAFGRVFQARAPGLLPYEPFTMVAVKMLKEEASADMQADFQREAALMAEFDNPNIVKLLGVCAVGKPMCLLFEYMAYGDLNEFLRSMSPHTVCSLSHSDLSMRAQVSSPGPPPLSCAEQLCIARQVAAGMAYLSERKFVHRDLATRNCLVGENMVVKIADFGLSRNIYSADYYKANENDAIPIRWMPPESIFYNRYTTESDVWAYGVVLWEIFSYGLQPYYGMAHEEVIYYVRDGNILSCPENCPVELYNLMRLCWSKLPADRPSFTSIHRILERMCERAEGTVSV
The assay is described as follows: biochemical. The conditions noted are these: read-out: % enzyme activity, 1 μM; Run 1, Run 2.

MSK2/RPS6KA4, sequence (O75676 whole entry): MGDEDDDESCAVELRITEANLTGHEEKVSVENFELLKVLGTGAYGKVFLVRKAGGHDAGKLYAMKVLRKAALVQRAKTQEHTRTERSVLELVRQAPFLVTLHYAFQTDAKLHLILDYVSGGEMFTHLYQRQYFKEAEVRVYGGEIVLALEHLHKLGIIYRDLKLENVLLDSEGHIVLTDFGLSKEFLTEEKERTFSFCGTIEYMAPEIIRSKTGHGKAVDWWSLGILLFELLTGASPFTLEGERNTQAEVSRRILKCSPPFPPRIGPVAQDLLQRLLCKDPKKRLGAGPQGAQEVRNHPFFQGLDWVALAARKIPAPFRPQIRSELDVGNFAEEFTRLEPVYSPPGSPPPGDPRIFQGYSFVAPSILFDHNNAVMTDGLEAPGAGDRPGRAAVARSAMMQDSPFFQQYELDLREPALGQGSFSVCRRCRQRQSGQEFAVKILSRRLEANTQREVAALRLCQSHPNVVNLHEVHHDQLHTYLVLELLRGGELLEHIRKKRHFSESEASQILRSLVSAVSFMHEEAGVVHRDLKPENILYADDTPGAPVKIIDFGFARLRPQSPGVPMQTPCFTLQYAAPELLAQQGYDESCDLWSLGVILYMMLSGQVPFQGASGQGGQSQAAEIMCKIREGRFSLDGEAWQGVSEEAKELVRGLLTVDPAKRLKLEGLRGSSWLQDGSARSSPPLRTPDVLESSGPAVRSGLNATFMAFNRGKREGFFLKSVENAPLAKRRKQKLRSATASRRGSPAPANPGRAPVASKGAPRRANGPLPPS
CDK19/cyclin C, sequence (Q9BWU1 whole entry): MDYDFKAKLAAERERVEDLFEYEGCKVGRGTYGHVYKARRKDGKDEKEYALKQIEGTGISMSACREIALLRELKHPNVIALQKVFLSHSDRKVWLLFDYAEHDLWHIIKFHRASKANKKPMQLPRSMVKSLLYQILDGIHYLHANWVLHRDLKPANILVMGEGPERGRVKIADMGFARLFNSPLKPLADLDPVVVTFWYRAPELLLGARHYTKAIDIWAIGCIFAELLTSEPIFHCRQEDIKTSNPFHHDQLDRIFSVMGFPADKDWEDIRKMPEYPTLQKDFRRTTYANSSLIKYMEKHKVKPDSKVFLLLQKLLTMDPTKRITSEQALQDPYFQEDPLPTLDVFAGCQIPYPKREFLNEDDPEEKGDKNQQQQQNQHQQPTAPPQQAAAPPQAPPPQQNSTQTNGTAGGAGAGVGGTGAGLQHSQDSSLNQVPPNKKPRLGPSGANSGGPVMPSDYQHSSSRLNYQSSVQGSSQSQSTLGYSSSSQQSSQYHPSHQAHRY
CDK19/cyclin C, sequence (P24863 whole entry partner): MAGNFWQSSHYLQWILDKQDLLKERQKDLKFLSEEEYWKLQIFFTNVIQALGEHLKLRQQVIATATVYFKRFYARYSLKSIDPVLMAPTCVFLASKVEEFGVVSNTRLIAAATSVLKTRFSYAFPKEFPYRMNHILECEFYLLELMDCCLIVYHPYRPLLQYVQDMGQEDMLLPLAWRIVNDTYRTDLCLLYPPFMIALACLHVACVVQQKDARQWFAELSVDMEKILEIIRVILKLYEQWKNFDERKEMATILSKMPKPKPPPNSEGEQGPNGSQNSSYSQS
CK1epsilon, sequence (P49674 whole entry): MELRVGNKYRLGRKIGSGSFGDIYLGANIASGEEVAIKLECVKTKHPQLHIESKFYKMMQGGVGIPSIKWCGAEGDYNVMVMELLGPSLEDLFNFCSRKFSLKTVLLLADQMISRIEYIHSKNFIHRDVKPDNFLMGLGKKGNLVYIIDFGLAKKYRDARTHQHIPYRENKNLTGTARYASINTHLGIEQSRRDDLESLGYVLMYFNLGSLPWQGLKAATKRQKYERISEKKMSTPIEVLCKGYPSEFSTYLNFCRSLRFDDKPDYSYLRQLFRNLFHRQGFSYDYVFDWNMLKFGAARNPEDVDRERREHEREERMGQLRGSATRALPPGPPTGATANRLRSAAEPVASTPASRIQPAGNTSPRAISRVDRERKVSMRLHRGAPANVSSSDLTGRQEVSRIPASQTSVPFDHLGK
ROCK1, sequence (Q13464 whole entry): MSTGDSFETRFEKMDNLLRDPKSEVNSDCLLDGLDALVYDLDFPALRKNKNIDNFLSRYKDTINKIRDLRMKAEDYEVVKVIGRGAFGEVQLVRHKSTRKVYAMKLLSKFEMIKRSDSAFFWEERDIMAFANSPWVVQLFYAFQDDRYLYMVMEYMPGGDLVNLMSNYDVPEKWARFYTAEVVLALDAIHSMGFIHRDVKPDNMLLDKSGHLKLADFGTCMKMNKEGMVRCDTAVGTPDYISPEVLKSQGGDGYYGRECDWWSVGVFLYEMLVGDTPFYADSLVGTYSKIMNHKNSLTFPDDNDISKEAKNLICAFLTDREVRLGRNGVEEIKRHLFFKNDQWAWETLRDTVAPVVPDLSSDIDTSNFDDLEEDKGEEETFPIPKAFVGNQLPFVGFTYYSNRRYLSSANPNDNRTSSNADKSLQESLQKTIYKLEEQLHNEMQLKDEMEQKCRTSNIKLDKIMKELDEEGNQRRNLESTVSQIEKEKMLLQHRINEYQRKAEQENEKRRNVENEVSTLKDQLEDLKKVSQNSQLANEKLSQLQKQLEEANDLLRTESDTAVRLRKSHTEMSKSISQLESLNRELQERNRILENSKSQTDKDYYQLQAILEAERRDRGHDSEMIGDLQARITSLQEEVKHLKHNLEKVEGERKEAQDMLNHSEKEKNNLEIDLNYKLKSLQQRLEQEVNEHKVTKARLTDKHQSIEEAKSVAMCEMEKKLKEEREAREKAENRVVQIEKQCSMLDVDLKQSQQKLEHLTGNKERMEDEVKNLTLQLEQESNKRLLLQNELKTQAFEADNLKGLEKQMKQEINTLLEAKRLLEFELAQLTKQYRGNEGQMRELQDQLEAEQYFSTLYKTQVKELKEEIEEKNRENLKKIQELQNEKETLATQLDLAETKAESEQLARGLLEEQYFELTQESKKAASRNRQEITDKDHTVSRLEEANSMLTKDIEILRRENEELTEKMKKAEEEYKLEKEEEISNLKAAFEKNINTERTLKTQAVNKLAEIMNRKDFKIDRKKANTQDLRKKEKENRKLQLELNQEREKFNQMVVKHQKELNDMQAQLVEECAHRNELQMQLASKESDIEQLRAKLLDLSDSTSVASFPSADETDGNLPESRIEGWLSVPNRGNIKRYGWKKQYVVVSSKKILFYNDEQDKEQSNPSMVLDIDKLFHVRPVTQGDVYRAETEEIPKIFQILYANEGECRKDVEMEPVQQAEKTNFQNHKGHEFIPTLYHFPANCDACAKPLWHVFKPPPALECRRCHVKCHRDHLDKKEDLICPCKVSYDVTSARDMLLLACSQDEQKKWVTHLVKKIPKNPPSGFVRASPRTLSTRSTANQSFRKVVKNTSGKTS

`COc1cc(-c2cncc(-c3ccc(N4CCN(C)CC4)cc3)c2C)cc(F)c1C(N)=O` [Compound 26a, 2-Fluoro-6-methoxy-4-(4-methyl-5-(4-(4-methylpiperazin-1-yl)phenyl)pyridin-3-yl)benzamide]: the remaining activity at 1 µM is 90.6% at NEK11; 98.7% on NEK5; 108% on WNK1; 93.8% at CK1epsilon; 95% at ROCK1; 92.8% at MUSK. The “% enzyme activity” value on CDK19/cyclin C was determined as 77.81%; at MSK2/RPS6KA4, 96.56%.

In the case of `COc1cc(-c2cncc(-c3ccc(N4C[C@@H](C)N(C)[C@@H](C)C4)cc3)c2C)cc(F)c1C(N)=O` [Compound 26c, 2-Fluoro-6-methoxy-4-(4-methyl-5-(4-((3R,5S)-3,4,5-trimethylpiperazin-1-yl)phenyl)pyridin-3-yl)benzamide], the remaining activity at 1 µM on NEK11 worked out at 91.9%; on NEK5 it was 93.2%; on WNK1, 104%; on CK1epsilon, 94.7%; at ROCK1, 94.7%; at MUSK, 92.2%. Further, the “% enzyme activity” value on CDK19/cyclin C turned out to be 85.09%; on MSK2/RPS6KA4, 92.01%.

Values taken from article PMC8213057, “Targeting ALK2: An Open Science Approach to Developing Therapeutics for the Treatment of Diffuse Intrinsic Pontine Glioma” (Journal of Medicinal Chemistry, 2020).
